Test results published in ChEMBL document CHEMBL5046253, “Synthesis and bioevaluation of diaryl urea derivatives as potential antitumor agents for the treatment of human colorectal cancer” (Eur J Med Chem, 2022).

What was measured:
[1] = target: T1, Phosphatidylinositol 4,5-bisphosphate 3-kinase catalytic subunit delta isoform (Homo sapiens, UniProt O00329); assay: Inhibition of PI3Kdelta (unknown origin) using PIP2 as substrate in presence of ATP incubated for 60 mins by ADP-glo based luminescence assay
T1 sequence (O00329 whole entry): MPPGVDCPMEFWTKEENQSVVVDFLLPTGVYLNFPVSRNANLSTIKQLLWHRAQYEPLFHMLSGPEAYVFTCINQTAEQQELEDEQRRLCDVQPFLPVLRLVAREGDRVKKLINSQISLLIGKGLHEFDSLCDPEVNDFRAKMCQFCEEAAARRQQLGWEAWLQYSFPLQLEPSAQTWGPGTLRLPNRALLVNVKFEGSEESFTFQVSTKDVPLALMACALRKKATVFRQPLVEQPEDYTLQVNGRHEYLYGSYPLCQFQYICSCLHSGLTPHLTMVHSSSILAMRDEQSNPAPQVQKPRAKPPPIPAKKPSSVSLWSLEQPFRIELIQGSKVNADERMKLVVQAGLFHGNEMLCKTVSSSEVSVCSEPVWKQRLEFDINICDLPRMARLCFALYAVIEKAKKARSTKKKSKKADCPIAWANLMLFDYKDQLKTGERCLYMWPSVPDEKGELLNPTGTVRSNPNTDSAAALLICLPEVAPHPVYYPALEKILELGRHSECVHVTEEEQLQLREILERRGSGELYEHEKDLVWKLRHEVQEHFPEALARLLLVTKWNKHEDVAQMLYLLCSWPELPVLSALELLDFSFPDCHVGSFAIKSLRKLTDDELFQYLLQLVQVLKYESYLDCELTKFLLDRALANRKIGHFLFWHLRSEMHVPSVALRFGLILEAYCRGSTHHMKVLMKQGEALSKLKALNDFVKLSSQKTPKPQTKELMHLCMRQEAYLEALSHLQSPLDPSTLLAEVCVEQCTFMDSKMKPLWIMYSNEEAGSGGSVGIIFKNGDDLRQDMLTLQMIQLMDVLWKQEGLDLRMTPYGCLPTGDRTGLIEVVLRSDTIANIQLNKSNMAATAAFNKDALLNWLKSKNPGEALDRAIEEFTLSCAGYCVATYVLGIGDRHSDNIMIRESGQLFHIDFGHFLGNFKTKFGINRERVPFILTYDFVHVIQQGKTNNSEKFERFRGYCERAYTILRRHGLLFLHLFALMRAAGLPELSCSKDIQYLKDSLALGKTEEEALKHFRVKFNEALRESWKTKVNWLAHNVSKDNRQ

[2] = target: Serine/threonine-protein kinase mTOR (Homo sapiens, UniProt P42345); assay: Inhibition of mTOR (unknown origin) using U-Light-4E-BP1 peptide as a substrate in presence of ATP incubated for 45 mins by Lance ultra assay
[3] = test system: MDA-MB-231; assay: Antiproliferative activity against human MDA-MB-231 cells assessed as reduction in cell viability incubated for 48 hrs by MTT assay; assay type: functional, cell-based; settings: MDA-MB-231, 48 h
[4] = test system: HeLa; assay: Antiproliferative activity against human HeLa cells assessed as reduction in cell viability incubated for 48 hrs by MTT assay; assay type: functional, cell-based
[5] = target: Phosphatidylinositol 4,5-bisphosphate 3-kinase catalytic subunit gamma isoform (Homo sapiens, UniProt P48736); assay: Inhibition of PI3Kgamma (unknown origin) using PIP2 as substrate in presence of ATP incubated for 60 mins by ADP-glo based luminescence assay
Sequence of Phosphatidylinositol 4,5-bisphosphate 3-kinase catalytic subunit gamma isoform (P48736 whole entry, canonical isoform): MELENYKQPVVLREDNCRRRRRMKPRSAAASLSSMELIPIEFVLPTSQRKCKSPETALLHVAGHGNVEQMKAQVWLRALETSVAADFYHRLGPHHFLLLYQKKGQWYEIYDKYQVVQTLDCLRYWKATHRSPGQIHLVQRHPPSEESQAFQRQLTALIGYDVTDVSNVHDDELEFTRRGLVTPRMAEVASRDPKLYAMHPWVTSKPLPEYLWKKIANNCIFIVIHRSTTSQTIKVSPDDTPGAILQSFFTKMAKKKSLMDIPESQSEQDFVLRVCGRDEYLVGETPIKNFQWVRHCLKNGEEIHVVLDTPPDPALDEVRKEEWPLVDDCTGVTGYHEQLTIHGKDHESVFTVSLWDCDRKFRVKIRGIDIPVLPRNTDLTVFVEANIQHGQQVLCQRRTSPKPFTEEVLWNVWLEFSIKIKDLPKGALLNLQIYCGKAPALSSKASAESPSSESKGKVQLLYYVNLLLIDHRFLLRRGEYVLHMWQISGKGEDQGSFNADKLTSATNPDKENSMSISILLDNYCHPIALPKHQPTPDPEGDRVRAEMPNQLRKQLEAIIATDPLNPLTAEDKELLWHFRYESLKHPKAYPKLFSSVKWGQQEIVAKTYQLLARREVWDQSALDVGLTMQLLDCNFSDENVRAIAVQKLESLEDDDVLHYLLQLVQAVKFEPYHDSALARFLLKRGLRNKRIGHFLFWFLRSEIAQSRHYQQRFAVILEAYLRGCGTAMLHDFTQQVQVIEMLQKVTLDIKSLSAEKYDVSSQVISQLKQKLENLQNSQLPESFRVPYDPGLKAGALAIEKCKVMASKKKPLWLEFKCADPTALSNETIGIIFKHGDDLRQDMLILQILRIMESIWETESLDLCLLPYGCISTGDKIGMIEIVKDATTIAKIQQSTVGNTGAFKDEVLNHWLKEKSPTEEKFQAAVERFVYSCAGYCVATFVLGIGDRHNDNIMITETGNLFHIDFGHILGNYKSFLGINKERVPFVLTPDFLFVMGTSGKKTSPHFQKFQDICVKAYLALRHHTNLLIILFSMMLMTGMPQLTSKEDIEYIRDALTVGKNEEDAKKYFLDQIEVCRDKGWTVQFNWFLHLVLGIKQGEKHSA

[6] = test system: NCI-H1975; assay: Antiproliferative activity against human NCI-H1975 cells harboring EGFR L858R/T790M double mutant assessed as reduction in cell viability incubated for 72 hrs by celltiter-glo assay; assay type: functional, cell-based; settings: NCI-H1975, 72 h
[7] = target: Phosphatidylinositol 4,5-bisphosphate 3-kinase catalytic subunit alpha isoform (Homo sapiens, UniProt P42336); assay: Inhibition of PI3Kalpha (unknown origin) using PIP2 as substrate in presence of ATP incubated for 60 mins by ADP-glo based luminescence assay
Sequence of Phosphatidylinositol 4,5-bisphosphate 3-kinase catalytic subunit alpha isoform (P42336 whole entry, canonical isoform): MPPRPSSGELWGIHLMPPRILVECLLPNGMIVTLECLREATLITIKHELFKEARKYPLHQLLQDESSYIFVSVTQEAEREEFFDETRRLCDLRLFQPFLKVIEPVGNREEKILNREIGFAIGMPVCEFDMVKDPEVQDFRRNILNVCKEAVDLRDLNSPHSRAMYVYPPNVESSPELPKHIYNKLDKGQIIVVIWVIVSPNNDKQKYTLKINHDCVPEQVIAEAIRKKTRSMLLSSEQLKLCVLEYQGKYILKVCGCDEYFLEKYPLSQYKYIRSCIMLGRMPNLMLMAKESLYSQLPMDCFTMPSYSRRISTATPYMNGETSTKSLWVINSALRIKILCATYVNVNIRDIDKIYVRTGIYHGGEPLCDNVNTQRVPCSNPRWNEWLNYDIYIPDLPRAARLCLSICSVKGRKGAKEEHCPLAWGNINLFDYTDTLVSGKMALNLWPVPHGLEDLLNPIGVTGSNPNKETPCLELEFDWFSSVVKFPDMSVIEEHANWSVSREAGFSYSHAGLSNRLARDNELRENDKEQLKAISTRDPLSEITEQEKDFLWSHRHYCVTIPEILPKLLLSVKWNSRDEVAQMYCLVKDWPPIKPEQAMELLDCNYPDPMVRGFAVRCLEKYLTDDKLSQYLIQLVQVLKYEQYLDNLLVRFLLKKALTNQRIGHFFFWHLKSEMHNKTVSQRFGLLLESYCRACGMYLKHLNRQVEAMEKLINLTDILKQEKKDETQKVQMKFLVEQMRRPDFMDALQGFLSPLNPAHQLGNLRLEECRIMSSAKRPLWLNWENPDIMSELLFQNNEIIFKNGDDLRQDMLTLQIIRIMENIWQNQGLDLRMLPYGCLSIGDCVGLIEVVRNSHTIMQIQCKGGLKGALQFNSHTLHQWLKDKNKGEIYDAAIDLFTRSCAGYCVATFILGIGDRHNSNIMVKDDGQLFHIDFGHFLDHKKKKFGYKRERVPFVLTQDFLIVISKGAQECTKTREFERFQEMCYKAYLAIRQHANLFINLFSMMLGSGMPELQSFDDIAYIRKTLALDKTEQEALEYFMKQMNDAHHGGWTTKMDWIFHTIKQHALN

[8] = target: Phosphatidylinositol 4,5-bisphosphate 3-kinase catalytic subunit beta isoform (Homo sapiens, UniProt P42338); assay: Inhibition of PI3Kbeta (unknown origin) using PIP2 as substrate in presence of ATP incubated for 60 mins by ADP-glo based luminescence assay
Sequence of Phosphatidylinositol 4,5-bisphosphate 3-kinase catalytic subunit beta isoform (P42338 whole entry, canonical isoform): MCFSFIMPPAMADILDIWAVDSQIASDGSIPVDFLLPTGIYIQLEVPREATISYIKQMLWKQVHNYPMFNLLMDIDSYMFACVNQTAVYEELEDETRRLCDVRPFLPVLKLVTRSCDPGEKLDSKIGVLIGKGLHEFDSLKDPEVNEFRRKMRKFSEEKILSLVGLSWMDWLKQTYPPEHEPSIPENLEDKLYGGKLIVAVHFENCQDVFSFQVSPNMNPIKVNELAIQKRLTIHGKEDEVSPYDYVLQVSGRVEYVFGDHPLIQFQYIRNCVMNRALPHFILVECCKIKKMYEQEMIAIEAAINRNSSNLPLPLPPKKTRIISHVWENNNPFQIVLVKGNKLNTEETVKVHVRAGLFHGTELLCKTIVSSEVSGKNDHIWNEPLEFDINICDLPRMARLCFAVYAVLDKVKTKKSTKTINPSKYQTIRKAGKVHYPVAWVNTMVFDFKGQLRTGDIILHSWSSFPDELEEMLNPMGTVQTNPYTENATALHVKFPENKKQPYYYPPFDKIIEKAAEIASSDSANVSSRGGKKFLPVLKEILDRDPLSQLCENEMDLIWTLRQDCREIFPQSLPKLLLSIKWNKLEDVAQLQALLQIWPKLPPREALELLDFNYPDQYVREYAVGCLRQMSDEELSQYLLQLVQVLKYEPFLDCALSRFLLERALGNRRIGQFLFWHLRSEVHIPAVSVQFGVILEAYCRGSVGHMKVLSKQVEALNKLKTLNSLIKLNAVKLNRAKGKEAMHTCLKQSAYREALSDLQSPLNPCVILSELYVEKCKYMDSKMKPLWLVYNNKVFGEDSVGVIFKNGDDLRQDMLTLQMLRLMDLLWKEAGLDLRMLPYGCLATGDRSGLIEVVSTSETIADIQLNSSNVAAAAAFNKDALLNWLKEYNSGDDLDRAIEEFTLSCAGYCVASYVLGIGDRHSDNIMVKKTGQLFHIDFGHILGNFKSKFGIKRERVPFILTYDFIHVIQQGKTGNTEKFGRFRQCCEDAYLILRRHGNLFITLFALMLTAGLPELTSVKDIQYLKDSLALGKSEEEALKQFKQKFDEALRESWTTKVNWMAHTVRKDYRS

[9] = test system: A-431; assay: Antiproliferative activity against human A431 cells harboring wild type EGFR mutant assessed as reduction in cell viability incubated for 72 hrs by celltiter-glo assay; assay type: functional, cell-based; settings: A-431, 72 h
[10] = test system: BaF3; assay: Antiproliferative activity against mouse BaF3 cells harboring EGFR L858R/T790M/C797S mutant assessed as reduction in cell viability incubated for 72 hrs by celltiter-glo assay; assay type: toxicity, cell-based; settings: BaF3, 72 h
[11] = test system: HCT-116; assay: Antiproliferative activity against human HCT-116 cells assessed as reduction in cell viability incubated for 48 hrs by MTT assay; assay type: functional, cell-based; settings: HCT-116, 48 h
[12] = test system: CNE-2; assay: Antiproliferative activity against human CNE-2 cells assessed as reduction in cell viability incubated for 48 hrs by MTT assay; assay type: functional, cell-based; settings: CNE-2, 48 h
[13] = test system: MCF7; assay: Antiproliferative activity against human MCF7 cells assessed as reduction in cell viability incubated for 48 hrs by MTT assay; assay type: functional, cell-based; settings: MCF7, 48 h
[14] = test system: HepG2; assay: Antiproliferative activity against human HepG2 cells assessed as reduction in cell viability incubated for 48 hrs by MTT assay; assay type: functional, cell-based; settings: HepG2, 48 h

| Structure (SMILES) | IC50 [1] [nM] | IC50 [2] [nM] | IC50 [3] [nM] | IC50 [4] [nM] | IC50 [5] [nM] | IC50 [6] [nM] | IC50 [7] [nM] | IC50 [8] [nM] | IC50 [9] [nM] | IC50 [11] [nM] | IC50 [13] [nM] | IC50 [14] [nM] | IC50 [10] [nM] | IC50 [12] [nM] |
| --- | --- | --- | --- | --- | --- | --- | --- | --- | --- | --- | --- | --- | --- | --- |
| COC(=O)[C@@H]1CCCN1C(=O)c1ccc(NC(=O)Nc2ccc(-c3nc(N4CCOCC4)nc(N4CCOCC4)n3)cc2)cc1 |  | 4.2 | 10400 | 9710 |  |  | 19 |  |  | 2700 | 9030 | 10400 |  | 3990 |
| COC(=O)[C@@H]1C[C@@H](O)CN1C(=O)c1ccc(NC(=O)Nc2ccc(-c3nc(N4CCOCC4)nc(N4CCOCC4)n3)cc2)cc1 |  | 3.3 | 430 | 1430 |  |  | 28.7 |  |  | 310 | 700 | 8820 |  | 2680 |
| NC(=O)C1CCCCN1C(=O)c1ccc(NC(=O)Nc2ccc(-c3cc(N4CCOCC4)nc(N4CCOCC4)n3)cc2)cc1 (centres undefined) |  | 7.6 | 5210 | 1510 |  |  | 16.5 |  |  | 2570 | 3160 | 17700 |  | 2000 |
| C[C@@H]1COCCN1c1nc(-c2ccc(NC(=O)Nc3ccc(C(=O)N4CCC[C@H]4C(N)=O)cc3)cc2)nc(N2CCOCC2)n1 |  | 1 | 1300 | 460 |  |  | 1.8 |  |  | 2190 | 3500 | 1030 |  | 350 |
| NC(=O)[C@@H]1CCCN1C(=O)c1ccc(NC(=O)Nc2ccc(-c3cc(N4CCOCC4)nc(N4CCOCC4)n3)cc2)cc1 |  | 7.4 | 11300 | 13500 |  |  | 13.8 |  |  | 8040 | 7890 | 24200 |  | 1950 |
| C[C@H]1COCCN1c1ccnc(-c2ccc(NC(=O)Nc3ccc(C(=O)N4CCC[C@H]4C(N)=O)cc3)cc2)n1 |  | 9.2 |  |  |  |  | 28.7 |  |  |  |  |  |  |  |
| NC(=O)[C@H]1CCCN1C(=O)c1ccc(NC(=O)Nc2ccc(-c3cc(N4CCOCC4)nc(N4CCOCC4)n3)cc2)cc1 |  | 7.3 | 16400 | 6980 |  |  | 5.7 |  |  | 6130 |  |  |  | 3830 |
| NC(=O)[C@@H]1CCCN1C(=O)c1cnc(Nc2ccc(-c3nc(N4CCOCC4)nc(N4CCOCC4)n3)cc2)nc1 |  |  |  |  |  |  | 680 |  |  |  |  |  |  |  |
| C[C@H](NC(=O)c1ccc(NC(=O)Nc2ccc(-c3nc(N4CCOCC4)nc(N4CCOC[C@@H]4C)n3)cc2)cc1)C(N)=O | 44.1 | 0.9 |  |  | 34 |  | 5 | 47.1 |  |  |  |  |  |  |
| NC(=O)[C@@H]1CCCN1C(=O)Nc1ccc(-c2nccc(N3CCOCC3)n2)cc1 |  | 10.3 |  |  |  |  | > 1000 |  |  |  |  |  |  |  |
| NC(=O)[C@@H]1CCCN1C(=O)c1ccc(NC(=O)Nc2ccc(-c3cc(N4CCOCC4)ncn3)cc2)cc1 |  |  |  |  |  |  | > 1000 |  |  |  |  |  |  |  |
| CN(C)C1CCN(C(=O)c2cnc(Nc3ccc(-c4nc(N5CCOCC5)nc(N5CCOCC5)n4)cc3)nc2)CC1 |  |  |  |  |  |  | > 1000 |  |  |  |  |  |  |  |

Further lines, with some results ahead:

| IC50 [1] [nM] | IC50 [2] [nM] | IC50 [3] [nM] | IC50 [4] [nM] | IC50 [5] [nM] | IC50 [6] [nM] | IC50 [7] [nM] | IC50 [8] [nM] | IC50 [9] [nM] | IC50 [11] [nM] | IC50 [13] [nM] | IC50 [14] [nM] | Structure (SMILES) | IC50 [10] [nM] | IC50 [12] [nM] |
| --- | --- | --- | --- | --- | --- | --- | --- | --- | --- | --- | --- | --- | --- | --- |
| 29.1 | 2.2 | 14600 | 12000 | 19.4 | 2880 | 7 | 14.9 | 2500 | 2510 |  |  | CN(C)[C@@H]1C[C@@H](C(N)=O)N(C(=O)c2ccc(NC(=O)Nc3ccc(-c4nc(N5CCOCC5)nc(N5CCOCC5)n4)cc3)cc2)C1 | 3350 | 7890 |
|  | 5.7 | 620 | 560 |  |  | 4.3 |  |  | 780 |  |  | NC(=O)[C@@H]1CCCN1C(=O)c1ccc(NC(=O)Nc2ccc(-c3nc(N4CCOCC4)nc(N4C[C@@H]5OCCO[C@H]5C4)n3)cc2)cc1 |  | 950 |
|  | 2.1 | 250 | 9690 |  | 601 | 1.6 |  | 242 | 740 | 2290 | 130 | NC(=O)C1CCCN(C(=O)c2ccc(NC(=O)Nc3ccc(-c4nc(N5CCOCC5)nc(N5CCOCC5)n4)cc3)cc2)C1 (centres undefined) | 294 | 10200 |
|  | 3.7 | 29100 | 11700 |  |  | 11 |  |  |  | 7150 |  | O=C(Nc1ccc(C(=O)N2CCCC2C(=O)O)cc1)Nc1ccc(-c2nc(N3CCOCC3)nc(N3CCOCC3)n2)cc1 (centres undefined) |  | 2560 |
| 13 | 2.3 | 7350 | 10400 | 7.4 |  | 0.6 | 3.2 |  | 290 | 10400 |  | NC(=O)[C@H]1CCCN1C(=O)c1ccc(NC(=O)Nc2ccc(-c3nc(N4CCOCC4)nc(N4CCOCC4)n3)cc2)cc1 |  | 180 |
|  | 1.2 | 1740 | 210 |  |  | 4.3 |  |  | 380 |  | 540 | C[C@H]1COCCN1c1nc(-c2ccc(NC(=O)Nc3ccc(C(=O)N4CCC(C(N)=O)CC4)cc3)cc2)nc(N2CCOCC2)n1 |  | 670 |
|  | 3.1 | 19200 | 28500 |  |  | 9.1 |  |  | 2480 |  | 18700 | CN(C)[C@H]1C[C@@H](C(N)=O)N(C(=O)c2ccc(NC(=O)Nc3ccc(-c4nc(N5CCOCC5)nc(N5CCOCC5)n4)cc3)cc2)C1 |  | 6670 |
|  | 1.4 | 6780 | 8600 |  |  | 0.6 |  |  | 200 | 4850 |  | NC(=O)C1CCCN1C(=O)c1ccc(NC(=O)Nc2ccc(-c3nc(N4CCOCC4)nc(N4CCOCC4)n3)cc2)cc1 (centres undefined) |  | 520 |
|  | 6.2 | 7570 | 4740 |  |  | 31.8 |  |  | 1610 | 9280 |  | CN(C)C1CCN(C(=O)c2ccc(NC(=O)Nc3ccc(-c4cc(N5CCOCC5)nc(N5CCOCC5)n4)cc3)cc2)CC1 |  | 1460 |
|  | 4.8 | 1920 | 7940 |  |  | 10.2 |  |  | 1300 | 2260 | 200 | CN(C)C1CCN(C(=O)c2ccc(NC(=O)Nc3ccc(-c4nc(N5CCOCC5)nc(N5C[C@@H]6OCCO[C@H]6C5)n4)cc3)cc2)CC1 |  | 290 |
|  | 2 | 9890 | 15600 |  |  | 1.9 |  |  | 1960 | 10500 |  | NC(=O)[C@@H]1C[C@@H]2C[C@@H]2N1C(=O)c1ccc(NC(=O)Nc2ccc(-c3nc(N4CCOCC4)nc(N4CCOCC4)n3)cc2)cc1 |  | 9160 |
|  | 3 | 5640 | 10300 |  |  | 1.6 |  |  | 3780 |  | 16600 | NC(=O)C1CCCCN1C(=O)c1ccc(NC(=O)Nc2ccc(-c3nc(N4CCOCC4)nc(N4CCOCC4)n3)cc2)cc1 (centres undefined) |  | 1740 |
|  | 1.9 | 900 | 1390 |  | 2440 | 0.7 |  | 585 | 1510 | 3810 | 510 | NC(=O)C1CCN(C(=O)c2ccc(NC(=O)Nc3ccc(-c4nc(N5CCOCC5)nc(N5CCOCC5)n4)cc3)cc2)CC1 | 292 | 4170 |
